Measured values published in patent US20080287405A1, “Compositions and Methods Relating to Protein Kinase Inhibitors” (priority 2004, published 2008).
Counter-ions that a name gives are not always drawn.

Columns and labels:
PKB/Akt [1] = experiment: Constitutive PKB/Akt phosphorylation in IPF fibroblasts (Western immunoblot); format: cell-based, human; conditions: 16 h prior to cell lysis
Text: (§1) Cell lysates were then subjected to SDS-PAGE and immunoblotted with specific antibodies against phospho-S^473 Akt and phospho-Y^397 FAK; blots were stripped and re-probed for total Akt and FAK, respectively.
(§2) Research protocols involving human subjects received prior approval by the Institutional Review Board at the University of Michigan. […] Fibroblasts were also isolated from normal-appearing lung tissue sections surgically removed from patients undergoing evaluation for suspected lung cancer. Cells were cultured in medium consisting of Dulbecco's modified Eagle's medium (DMEM; GIBCO, Grand Island, N.Y.) supplemented with 10% fetal bovine serum (FBS; Sigma, St. Louis, Mo.), 100 U/ml penicillin/streptomycin (Sigma, St. Louis Mo.), and fungizone (GIBCO, Grand Island, N.Y.); medium was changed every two days. Passage 3-5 fibroblasts were plated on 60 mm cell culture dishes at a density of 5×10^5 cells/dish and incubated at 37° C. in 5% CO2-95% air. When cells reached 80% confluence, they were growth-arrested for 48 hours in DMEM with 0.01% FBS prior to treatment with/without TGF-β1.
(§3) Porcine-derived TGF-β1 was obtained from R&D Systems, Minneapolis, Minn. All other cell culture reagents were from Sigma, St Louis, Mo. […] Drugs were initially solubilized in DMSO to make a 30 mM “stock” concentration. […]

PKB/Akt [2] = experiment: TGF-β1-induced PKB/Akt phosphorylation in normal fibroblasts (Western immunoblot); format: cell-based, human; conditions: TGF-β1 2 ng/ml, 10 μM drug co-treated, 16 h
Text: as §1, §2, §3

FAK [3] = experiment: TGF-β1-induced FAK phosphorylation in normal fibroblasts (Western immunoblot); format: cell-based, human; conditions: TGF-β1 2 ng/ml, 10 μM drug co-treated, 16 h
Text: as §1, §2, §3

bleomycin-injured mice = experiment: Murine model of bleomycin-induced pulmonary fibrosis (lung collagen, histology); format: in vivo; conditions: 6 mg/kg IP or oral gavage for 21 days
Text: Mice were given intratracheal bleomycin (BL) or saline (control). […] A) Lungs were harvested on day 14 following bleomycin injury and total lung collagen determined as described in “Methods”. […] B) Representative histopathology (hematoxylin and eosin staining, top panels; Masson's trichrome blue staining for collagen, bottom panels) of the lungs of mice intra-tracheally instilled with saline (control) or bleomycin (BL). […] Lungs were examined at day 14 following bleomycin injury.
Tissue sections were stained (H&E, mag 100×) 21 days following bleomycin and 14 days after treatment with NL-71-101.
B6129F2/J mice were purchased from Jackson Laboratories, Bar Harbor, Me., and housed under specific pathogen free conditions in enclosed filter top cages. Clean food and water was given ad libitum. The mice were handled and maintained using microisolator techniques with daily veterinarian monitoring. […]
Mice were euthanized by CO2 asphyxiation and perfused via the heart with 5 ml of normal saline. […] Following centrifugation, the pellet was resuspended in 1 ml of alkali reagent, vortexed to release the dye into solution, and 100 μl transferred to a microplate and absorbance measured at 540 nm. Values for experimental samples were calculated based on a standard curve of known concentrations of purified rat tail collagen. […]

α-SMA [4] = experiment: α-SMA expression in lung fibroblasts isolated from drug-treated bleomycin-injured mice (Western); format: in vivo; conditions: 6 mg/kg IP or oral gavage for 21 days
Text: C57BL/6J mice were given intratracheal (IT) saline or bleomycin on day 1. […] Fibroblasts were isolated from lung explants on day 14 and expanded in in vitro cell culture. Cells were lysed in RIPA buffer at passage 2 and 90% confluency. Cell lysates were subjected to sodium dodecyl sulfate polyacrylamide gel electrophoresis and immunoblotted with antibodies against α-SMA (a marker of myofibroblast differentiation), phospho-S^473 Akt, and phospho-Y^397 FAK.
Fibroblasts were isolated from lung explants on day 14 and expanded in in vitro cell culture, initially in the presence of 10% fetal bovine serum and then in the absence of serum for 24 h. Cell lysates were obtained and subjected to SDS-PAGE and immunoblotted with antibodies against the proteins indicated.
Mice were treated with Gleevec by IP injection (6 mg/kg) or oral gavage (6 mg/kg) for 21 days. Fibroblasts were isolated from lung explants and cell lysates subjected to SDS-PAGE and immunoblotted for α-SMA. Blots were stripped and re-probed for α-tubulin. Additionally, the effects of Gleevec on pro-fibrotic signaling of fibroblasts by TGF-α1. […]
To determine the result of systemic administration of AG1879 in stable modulation of signaling/phenotype of fibroblasts and myofibroblasts in vivo, fibroblasts isolated from lungs of bleomycin injured mice were analyzed. […]

α-SMA [5] = experiment: α-SMA expression in normal human lung fibroblasts (IMR-90) ± TGF (Western); format: cell-based
Protocol: (§4) Mice were treated with Gleevec by IP injection (6 mg/kg) or oral gavage (6 mg/kg) for 21 days. Fibroblasts were isolated from lung explants and cell lysates subjected to SDS-PAGE and immunoblotted for α-SMA. Blots were stripped and re-probed for α-tubulin. Additionally, the effects of Gleevec on pro-fibrotic signaling of fibroblasts by TGF-α1. Normal human lung fibroblasts (IMR-90) were stimulated ±TGF-â1 (2 ng/ml) Gleevec at the doses indicated for 24 h. Cell lysates were then subjected to SDS-PAGE and immunoblotted for specific antibodies to the proteins shown.
The present invention is not limited to a particular mechanism. Indeed, an understanding of the mechanism is not necessary to practice the present invention. […] Furthermore, these observations emphasize the importance of defining the modulation of fibroblast phenotypes/signaling both in vitro and in vivo.

PKB/Akt [6] = experiment: TGF-induced PKB/Akt phosphorylation in normal human lung fibroblasts (IMR-90); format: cell-based; conditions: IMR-90, TGF 2 ng/ml, 24 h
Protocol: as §4
(§5) The present invention is not limited to a particular mechanism. Indeed, an understanding of the mechanism is not necessary to practice the present invention.

FAK [7] = experiment: TGF-induced FAK phosphorylation in normal human lung fibroblasts (IMR-90); format: cell-based; conditions: IMR-90, TGF 2 ng/ml, 24 h
Protocol: as §4, §5

ERK-1/2 MAPK = experiment: Baseline ERK-1/2 MAPK phosphorylation in normal human lung fibroblasts (IMR-90); format: cell-based; conditions: IMR-90, 24 h, doses indicated in FIG. 9
Protocol: as §4, §5

SMILES	inhibition of constitutive PKB/Akt phosphorylation at 10 μM (PKB/Akt [1])	inhibition of TGF-β1-induced PKB/Akt phosphorylation (PKB/Akt [2])	inhibition of TGF-β1-induced FAK phosphorylation (FAK [3])	efficacy as an anti-fibrotic agent (bleomycin-injured mice)	expression of α-SMA in lung fibroblasts cultured from treated mice (α-SMA [4])	baseline α-SMA expression (α-SMA [5]; IMR-90, 24 h, no TGF)	TGF-α1-induced α-SMA expression (α-SMA [5]; IMR-90, TGF 2 ng/ml, 24 h)	TGF-α1-induced phosphorylation/activation of PKB/Akt (PKB/Akt [6])	TGF-α1-induced phosphorylation/activation of FAK (FAK [7])	baseline phosphorylation of ERK-1/2 MAPK (ERK-1/2 MAPK)
Nc1ncnc2c1cnn2-c1ccccc1 [c/AG, 4-Amino-7-phenylpyrazol[3,4-d]pyramidine]	no effect	no effect	no effect							
Cc1ccc(NC(=O)c2ccc(CN3CCN(C)CC3)cc2)cc1Nc1nccc(-c2cccnc2)n1 [Gleevec, imatinib mesylate]				not to be effective	enhanced expression	modest reductions	does not inhibit	promoted/enhanced	promoted/enhanced	dose-dependently enhanced
